For assay [1], the target named is Serine/threonine-protein kinase pim-2 (Homo sapiens, UniProt Q9P1W9). Description: Inhibition of recombinant Pim2 (unknown origin) by electrochemiluminescence assay.
Assay [2] has as its target Serine/threonine-protein kinase pim-1 (Homo sapiens, UniProt P11309). Description: Inhibition of recombinant Pim1 (unknown origin) by electrochemiluminescence assay.

Our source for the IC50 values is BindingDB's records for doi:10.1016/j.bmcl.2016.09.067 (Amgen, 2016).

Chain of Serine/threonine-protein kinase pim-2 (Q9P1W9 whole entry): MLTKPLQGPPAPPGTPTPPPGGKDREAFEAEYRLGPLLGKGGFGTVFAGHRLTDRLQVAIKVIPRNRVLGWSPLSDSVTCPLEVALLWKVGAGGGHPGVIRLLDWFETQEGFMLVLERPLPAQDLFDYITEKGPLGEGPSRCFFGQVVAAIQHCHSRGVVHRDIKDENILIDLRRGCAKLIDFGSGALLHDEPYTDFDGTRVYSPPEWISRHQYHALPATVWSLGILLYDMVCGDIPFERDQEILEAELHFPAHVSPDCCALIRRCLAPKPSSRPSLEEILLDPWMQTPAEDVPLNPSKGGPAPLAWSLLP
Chain of Serine/threonine-protein kinase pim-1 (P11309 whole entry): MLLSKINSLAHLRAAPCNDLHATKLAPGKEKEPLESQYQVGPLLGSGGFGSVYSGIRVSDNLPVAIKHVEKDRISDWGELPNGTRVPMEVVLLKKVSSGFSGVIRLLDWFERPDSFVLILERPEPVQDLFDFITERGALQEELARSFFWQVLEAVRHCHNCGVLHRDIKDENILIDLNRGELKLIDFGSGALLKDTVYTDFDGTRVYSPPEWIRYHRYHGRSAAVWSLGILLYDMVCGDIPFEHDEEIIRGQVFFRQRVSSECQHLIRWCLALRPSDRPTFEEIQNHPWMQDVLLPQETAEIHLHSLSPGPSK

`N[C@H]1CCN(c2ccncc2Nc2ncc3ccc(-c4c(F)cccc4F)nn23)C1` [US9187486, 13]: in assay [1], the IC50 is above 1000 nM.

In the case of `N[C@H]1CCCN(c2cnccc2Nc2ncc3ccc(-c4c(F)cccc4F)nn23)C1` [US9187486, 80], the 50% inhibitory concentration (IC50) in assay [1] and in assay [2] was above 1000 nM throughout.

The IC50 is the midpoint of a concentration-inhibition curve.
